The results in this text go back to patent US20030103863A1, “High pressure sterilising of sensitive active principles” (priority 2000, published 2003).

The nature of series [1]: HPLC purity after high pressure treatment. The series is classed as physicochemical. As to conditions: powder, high pressure treatment at 5,000 bars. As for the experimental part:
Complementary tests were conducted to show the harmlessness of the treatment by high pressure on the fragile elements. In this case, these elements were placed in solution or in the form of powder.
a) The peptide, in this case Gramicidin, is subjected to a high pressure treatment at 5,000 bars, and its purity was also tested by HPLC, the variations remaining less than 1%. The high pressures have no influence on the structure.

A short description of series [2]: HPLC chromatography of insulin after high pressure treatment. The series is classed as physicochemical. The following applies: 4,000, 5,000 and 6,000 bars for 10 minutes, ambient temperature and −20° C.; analyzed at 214 nm. The method, then: b) Insulin was selected at 40 UI, commercial form, and diluted to {fraction (1/100 )} at pH 2.5. For the measurement, passage is carried out with a flow rate of 1 ml/min in an HPLC (High Pressure Liquid Chromatography) apparatus.
Different specimens were subjected, at ambient temperature and at a negative temperature of −20° C., to:
atmospheric pressure for the standard,
5,000 bars for 10 minutes, and
The specimens, after treatment, are then analyzed at 214 nm in a chromatographic apparatus with automatic injection.

As for gramicidin, in series [1], the “variations of purity by HPLC” value is “less than 1%”.

Regarding insulin, the “modifications or alterations of the structure (HPLC curves vs standard at atmospheric pressure)” value in series [2] is “no noticeable modifications or alterations”.
